Reference: patent US5200412A, “Heterobicyclic containing benzene sulfonamides which are platelet activating factor antagonists” (British Bio-Technology Limited, priority 1990, dated 1993)

Legend:
[1] = system: PAF-induced hypotension; experiment: reversal of PAF-induced hypotension in the rat; type: in vivo, Male Sprague-Dawley rats; details: iv, anaesthetised rats, i.v. bolus, PAF 100 ng/kg/min i.v. infusion, read-out: ED50 (50% reversal of the hypotensive PAF response)
Description: (§1) Compounds of general formula I inhibit PAF-induced functions in both the cellular and tissue levels by changing the PAF binding to its specific receptor site. The ability of compounds of general formula I to inhibit the binding of PAF to its specific receptor binding site on human platelet plasma membranes was measured according to Pharmacological Example 1. The ability of compounds of general formula I to reverse the hypotension caused by an infusion of PAF in rats was measured according to Pharmacology Example 2.
Male Sprague-Dawley rats (300-350 g) were anaesthetised with a mixture of sodium pentobarbitone, 22.5 mg/kg and thiopental 62.5 mg/kg. Through a midline incision in the neck, the trachea was cannulated and the animals, breathed spontaneously. A carotid artery was cannulated for the measurement of blood pressure and this signal was used to trigger a rate meter to measure heart rate. Both jugular veins were cannulated: one for the infusion of PAF and the other for the bolus administration of test compounds.
PAF, 100 ng/kg/min was infused i.v. until a sustained fall in mean blood pressure of 50 mmHg was achieved. […] Also presented in Table 2 is the result for a comparative example (N-cyclohexyl-N-methyl-4-(1H-imidazo[4,5-c]pyridylmethyl)benzamide. This compound (a PAF antagonist described in EP-A-0260613) is not within the scope of the invention.

[2] = target: T1, PAF receptor (Homo sapiens, UniProt P25105); experiment: inhibition of 3H-PAF binding to human platelet plasma membrane; details: human platelet membranes, 0.5 nM 3H-PAF, 1 hour incubation at 0° C., pH 7.0
T1 construct: Platelet concentrates were obtained from a hospital blood bank; from tissue; host or cells: human platelets (hospital blood bank concentrates), lysed platelet membrane fraction
T1 sequence (P25105 whole entry): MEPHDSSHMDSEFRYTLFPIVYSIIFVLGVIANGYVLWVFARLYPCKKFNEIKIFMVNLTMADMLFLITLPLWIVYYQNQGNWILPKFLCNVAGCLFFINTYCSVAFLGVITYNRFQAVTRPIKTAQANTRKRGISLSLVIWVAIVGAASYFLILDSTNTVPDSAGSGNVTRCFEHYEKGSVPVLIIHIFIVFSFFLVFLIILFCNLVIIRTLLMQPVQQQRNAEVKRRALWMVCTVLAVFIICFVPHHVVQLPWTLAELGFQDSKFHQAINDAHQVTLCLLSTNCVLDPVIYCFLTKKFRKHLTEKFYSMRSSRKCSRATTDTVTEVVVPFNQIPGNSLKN
Description: as §1
The inhibition of 3H-PAF binding to human platelet plasma membrane by compounds of general formula I was determined by isotopic labelling and filtration techniques. Platelet concentrates were obtained from a hospital blood bank. These platelet concentrates (500-2500 ml.) were centrifuged at 800 rpm for 10 minutes in a SORVALL RC3B centrifuge to remove the red blood cells present. (The word SORVALL is a trade mark ) The supernatant was subsequently centrifuged at 3,000 rpm in a SORVALL RC3B centrifuge to pellet the platelets present. The platelet rich pellets were resuspended in a minimum volume of buffer (150 mM NaCl, 10 mM Tris, 2 mM EDTA, pH 7.5) and layered onto Ficoll-Paque gradients, 9 ml platelet concentrate to 2 ml Ficoll, and centrifuged at 1,900 rpm for 15 minutes in a SORVALL RT6000 centrifuge. This step removes the residual red blood cells and other nonspecific material such as lymphocytes from the preparation. The platelets which form a band between the plasma and the Ficoll were removed, resuspended in the above buffer and centrifuged at 3,000 rpm for 10 minutes in a SORVALL RT6000 centrifuge. The pelleted platelets were resuspended in buffer (10 mM Tris, 5 mM MgCl2, 2 mM EDTA, pH 7.0), snap freezed in liquid N2 and allowed to thaw slowly at room temperature in order to lyse the platelets. The latter step was repeated at least 3 times to ensure proper lysis. The lysed platelets were centrifuged at 3,000 rpm for 10 minutes in a SORVALL RT6000 centrifuge and resuspended in buffer. The latter step was repeated twice in order to remove any cytoplasmic proteins which may hydrolyse the platelet activating factor (PAF) receptor The prepared platelet membranes may be stored at -70° C. After thawing the prepared membranes were centrifuged in a SORVALL RT6000 at 3,000 rpm for 10 minutes and resuspended in assay buffer.
The assay was conducted by preparing a series of Tris-buffered solutions of the selected antagonist of predetermined concentrations. Each of these solutions contained ^3 H-PAF (0.5 nM; 1-O-[^3 H]octadecyl-2-acetyl-sn-glycero-3-phosphoryl choline with a specific activity of 132 Ci/mmol), […], a known amount of the test antagonist, and a sufficient amount of Tris-buffer solution (10 mM Tris, 5 mM MgCl2, pH 7.0, 0.25% BSA) to make the final volume 1 ml. Incubation was initiated by the addition of 100 μg of the isolated membrane fraction to each of the above solutions at 0° C. Two control samples, one (Cl) which contained all the ingredients described above except the antagonist and the other (C2) contains Cl plus a 1000-fold excess of unlabelled PAF, were also prepared and incubated simultaneously with the test samples. After 1 hour incubation, each solution was filtered rapidly under vacuo through a WHATMAN GF/C glass fibre filter in order to separate unbound PAF from bound PAF. (The word WHATMAN is a trade mark.) The residue in each case was rapidly washed 4 times with 5 ml cold (4° C.) Tris-buffer solution. Each washed residue was dried under vacuum on a sampling manifold and placed into vials containing 20 ml of OPTIPHASE MP scintillation fluid and the radioactivity counted in a liquid scintillation counter. […]

[3] = system: endotoxin induced hypotension; experiment: reversal of endotoxin induced hypotension in the rat; type: in vivo; details: iv, read-out: ED50 (50% reversal of the endotoxin induced hypotension)
Description: Rats were anaesthetised with a mixture of sodium pentobarbitone, 22.5 mg/kg, and thiopental, 62.5 mg/kg. The animals breathed spontaneously, air enriched with oxygen, and a carotid artery was cannulated for the measurement of blood pressure and heart rate. […] Test compounds were administered i.v. via the other jugular vein as a bolus.

[4] = system: PAF-induced bronchoconstriction; experiment: inhibition of PAF-induced bronchoconstriction in the guinea pig; type: in vivo, Male Dunkin-Hartley guinea-pigs; details: 10 mg/kg p.o., 1 hour before PAF 40 ng/kg/min i.v. infusion
Description: The inhibition of PAF induced bronchoconstriction was measured in anaesthetised artificially ventilated guinea-pigs (450-500 g) using a modified version of the Konzett-Rossler technique (Konzett M and Rossler R, Naunym-Schmiedeb. Arch. Exp. Pathol. Pharmakol., 1940, 197, 71) Male Dunkin-Hartley guinea-pigs were anaesthetised with urethane, 1.6 g/kg. Through a midline neck incision, the trachea was cannulated and the animal ventilated with a constant tidal volume set between 5 and 15 ml, to give a tracheal inflation pressure of 15 mmHg at a rate of 40 per minute. A carotid artery was cannulated for the measurement of blood pressure and heart rate and both jugular veins were cannulated, one for the infusion of PAF and the other for the administration of test compounds. PAF, 40 ng/kg/min in saline with 0.25% bovine serum albumin, was infused i.v. to produced a 100% increase in tracheal inflation pressure, and bronchoconstrictor effects were determined. Test compounds were administered p.o. (10 mg/kg) 1 hour before the infusion of PAF was started whilst the animals were conscious.

Row | SMILES | ED50 [1] | IC50 [2] | ED50 [3] | % Inhibition of PAF-induced bronchoconstriction [4]
1 | CN(C(=O)c1ccc(Cn2cnc3cnccc32)cc1)C1CCCCC1 [Comparative Example, N-Cyclohexyl-N-methyl-4-(1H-imidazo[4,5-c]pyridylmethyl)benzamide, reference compound] | 150 µg/kg |  |  | 
2 | COC(=O)[C@H](CC(C)C)NS(=O)(=O)c1ccc(Cn2c(C)nc3cnccc32)cc1 [Example 32B, N-4-(1H-2-methylimidazo[4,5-c]pyridylmethyl)phenylsulphonyl-L-leucine methyl ester] | 2.1 µg/kg | 8 nM | 15.5 µg/kg | 
3 | CCOC(=O)[C@H](CC(C)C)N(CC(=O)OC(C)(C)C)S(=O)(=O)c1ccc(Cn2c(C)nc3cnccc32)cc1 [69(B), N-t-butoxycarbonylmethyl-N-4-(1H-2-methylimidazo[4,5-c]pyridylmethyl)phenylsulphonyl-L-leucine ethyl ester] |  |  |  | 60%
4 | COC(=O)[C@H](COCc1ccccc1)NS(=O)(=O)c1ccc(Cn2c(C)nc3ccccc32)cc1 [Example 12, N-4-(1H-2-Methylbenzimidazolylmethyl)phenylsulphonyl-O-benzyl-L-serine methyl ester] | 21 µg/kg |  |  | 
5 | CCOCCOC(=O)[C@H](CC(C)C)NS(=O)(=O)c1ccc(Cn2c(C)nc3ccncc32)cc1 [Example 42A, N-4-(3H-2-Methylimidazo[4,5-c]pyridylmethyl)phenylsulphonyl-L-leucine 2-ethoxyethyl ester] |  | 2 nM |  | 
6 | Cc1nc2cnccc2n1Cc1ccc(S(=O)(=O)N[C@@H](CC(C)C)C(=O)OCCOCc2ccccc2)cc1 [Example 43B, N-4-(1H-2methylimidazo[4,5-c]pyridylmethyl)phenylsulphonyl-L-leucine 2-benzoxyethyl ester] |  | 1 nM |  | 
7 | Cc1nc2cnccc2n1Cc1ccc(S(=O)(=O)N(C)[C@@H](CC(C)C)C(=O)OC(C)C)cc1 [Example 56B, N-Methyl-N-4-(1H-2-methylimidazo[4,5-c]pyridylmethyl)phenylsulphonyl-L-leucine i-propyl ester] | 0.6 µg/kg |  |  | 72%
8 | C=CCN([C@@H](CC(C)C)C(=O)OCC)S(=O)(=O)c1ccc(Cn2c(C)nc3cnccc32)cc1 [60(B), N-Allyl-N-4-(1H-2-methylimidazo[4,5-c]pyridylmethyl)phenylsulphonyl-L-leucine ethyl ester] |  |  |  | 60%
9 | COC(=O)[C@H](CC(C)C)NS(=O)(=O)c1ccc(Cn2c(C)nc3ccccc32)cc1 [Example 7, N-4-(1H-2-Methylbenzimidazolylmethyl)phenylsulphonyl-L-leucine methyl ester] | 11.6 µg/kg | 20 nM |  | 
10 | CCOC(=O)[C@H](CC(C)C)N(C)S(=O)(=O)c1ccc(Cn2c(C)nc3cnccc32)cc1 [Example 53B, N-Methyl-N-4-(1H-2-methylimidazo[4,5-c]pyridylmethyl)phenylsulphonyl-L-leucine ethyl ester] | 0.5 µg/kg | 0.15 nM |  | 91%
11 | CCOC(=O)[C@H](CC(C)C)NS(=O)(=O)c1ccc(Cn2c(C)nc3cnccc32)cc1 [Example 35B, N-4-(1H-2-methylimidazo[4,5-c]pyridylmethyl)phenylsulphonyl-L-leucine ethyl ester] |  | 0.2 nM | 2.9 µg/kg | 
12 | CCOC(=O)[C@H](CC(C)C)N(C)S(=O)(=O)c1ccc(Cn2c(C)nc3ccccc32)cc1 [Example 54, N-Methyl-N-4-(1H-2-methylbenzimidazolylmethyl)phenylsulphonyl-L-leucine ethyl ester] |  | 3 nM |  | 
13 | CC[C@H](C)[C@H](NS(=O)(=O)c1ccc(Cn2c(C)nc3ccccc32)cc1)C(=O)OC [Example 6, N-4-(1H-2-Methylbenzimidazolylmethyl)phenylsulphonyl-L-isoleucine methyl ester] |  | 30 nM |  | 
14 | CCOC(=O)[C@H](CC(C)C)NS(=O)(=O)c1ccc(Cn2c(C)nc3ccccc32)cc1 [Example 14, N-4-(1H-2-Methylbenzimidazolylmethyl)phenylsulphonyl-L-leucine ethyl ester] |  | 15 nM |  | 
15 | CCCCOC(=O)[C@H](CC(C)C)N(C)S(=O)(=O)c1ccc(Cn2c(C)nc3cnccc32)cc1 [Example 57B, N-methyl-N-4-(1H-2-methylimidazo[4,5-c]pyridylmethyl)phenylsulphonyl-L-leucine n-butyl ester] |  | 1 nM |  | 
